In PMC12081876, “Identification of PTGR2 inhibitors as a new therapeutic strategy for diabetes and obesity” (EMBO Molecular Medicine, 2025):
Where “and” joins values, the source holds several entries; their conditions need not be identical. Identical values can stand only once.

Tests used:
mPPARγ LBD C313A mutant = target: T1, mPPARγ LBD C313A mutant (Mus musculus, UniProt P37238, C313A); test: Native mass spectrometry ligand binding, mPPARγ LBD C313A; parameters: species or system murine
T1 construct: mPPARγ LBD C313A mutant
Experimental: (§1) Wide-type mPPARγ ligand binding domain (LBD), mPPARγ LBD C313A mutant, and mPPARγ LBD H351A mutant were mixed together in a 1:1:1 molar ratio and then incubated with 15-keto-PEG2 or pioglitazone in a 1:10 molar ratio for 5 min at room temperature, respectively. The protein mixture was buffer-exchanged into 500 mM ammonium acetate buffer pH 7.5 using 7 K Zeba™ Spin Desalting Column (cat. no, 89877, Thermo) and immediately introduced into a modified Q-Exactive mass spectrometer (Thermo). The sets of optimized parameters were applied to analyze the ligand binding, including the higher-energy collisional dissociation (HCD) energy of 20 V; spray voltage, 1.1 kV; capillary temperature, 200 °C; S-lens RF level, 200; and resolution, 12,500 at m/z 400. Spectra were acquired and processed manually using Thermo Xcalibur Qual Browser (version 4.4.16.14). The relative percentage of compound-bound forms was quantified by the UniDec software and the degree of effector coupling was calculated by normalizing the relative percentage of bound forms to the sum of the percentage of unbound and bound forms.

mPPARγ LBD H351A mutant = target: T2, mPPARγ LBD H351A mutant (Mus musculus, UniProt P37238, H351A); test: Native mass spectrometry ligand binding, mPPARγ LBD H351A; parameters: species or system murine
T2 construct: mPPARγ LBD H351A mutant
Experimental: as §1

[1] = test system: HFHSD-fed obese C57BL6/J mice; test: Cold tolerance test (cold-induced thermogenesis); assay type: in vivo, mouse; conditions: for interscapular area temperature, Average / interscapular area temperature: Figure 2T left panel; for interscapular area temperature, Average / rectal temperatures, Average: average of 12 mice; for interscapular area temperature, Average / interscapular area temperature / inguinal area temperature / rectal temperatures, Average / rectal temperatures: in °C (unit assumed); for interscapular area temperature / inguinal area temperature / rectal temperatures: individual mice; for inguinal area temperature: Figure 2T middle panel; for rectal temperatures, Average / rectal temperatures: Figure 2T right panel; for temperature, Figure 2T middle panel, Average: in °C
Experimental: For the cold tolerance test, 24-week-old mice with matched average body weight from the two groups were placed individually on HFHSD in a 4 °C chamber. The rectal temperature of the mice was measured after 0, 1, 2, 3, 4, 5, 6, 12, and 18 h. For measuring diet-induced thermogenesis, 24-week-old mice were fasted overnight for 18 h. Then, we measured their rectal temperature at 0, 30, 60, 90, 120, 150, 180, and 240 min after HFHSD refeeding. The rectal and surface temperature were detected by thermal probes (Physitemp Therma TH-5, ThermoWorks, Alpine and MicroTherma 2T, ThermoWorks, Alpine, respectively).

[2] = test system: HFHSD-fed obese C57BL6/J mice; test: Bone mineral density of femur (micro CT); assay type: in vivo, mouse
[3] = test system: HFHSD-fed obese C57BL6/J mice; test: Hepatic steatosis (H&E) and hepatic triglycerides content; assay type: in vivo, mouse; conditions: 100 mg/kg/day oral, vs vehicle
Experimental: Tissues were fixed in 4% paraformaldehyde and then embedded in paraffin before sectioning and staining. The stained sections were scanned and analyzed using a MIRAX viewer (http://www.zeiss.de/mirax) and Image J software (http://rsbwed.nih.gov/ij/).
Approximately 80 mg of liver tissue was homogenized in 1800 μl of chloroform/methanol (2/1). Then, 360 μl of H2O was added. The homogenates were centrifuged at 2000 rpm for 10 min. The lower 200-μl layer was added with 100 μl of chloroform with 4% Triton X-100 and dried in a chemical hood. The dried pellet was redissolved with 200 μl of H2O and was determined the triglyceride concentrations with Wako TG LabAssay kit (cat. no. 290-63701, Wako).

human PTGR2 (hPTGR2) = target: T3, human PTGR2 (hPTGR2) (Homo sapiens, UniProt Q8N8N7); test: Recombinant human PTGR2 enzymatic inhibition (NADPH-Glo), IC50; assay type: biochemical
T3 construct: made in house
Experimental: High-throughput compound screening was conducted at the core service in the Genomics Research Center (GRC) of Academia Sinica, Taiwan. The GRC 120 K ReSet comprises more than 125,000 compounds, selected as representatives by structural similarity clustered from the 2 M GRC compound library. The ReSet was arrayed in 1536-well plates as single compounds at 1 mM in 100% DMSO. The quality of all compounds was assured by the vendor (purity is greater than 90%) and was verified internally with 5% random sampling. Recombinant human PTGR2 protein was purified, and the screening was conducted using the NADPH-Glo Detection kit (Promega) to measure the amount of NADPH. The CV of HTS ranged from 4.8% to 6.1%, with a Z’ value of 0.7. The threshold was set as 1.5, resulting in ~300 hits for further confirmation and determination of the half-maximal inhibitory concentration (IC50). […]

T3 sequence (Q8N8N7 whole entry): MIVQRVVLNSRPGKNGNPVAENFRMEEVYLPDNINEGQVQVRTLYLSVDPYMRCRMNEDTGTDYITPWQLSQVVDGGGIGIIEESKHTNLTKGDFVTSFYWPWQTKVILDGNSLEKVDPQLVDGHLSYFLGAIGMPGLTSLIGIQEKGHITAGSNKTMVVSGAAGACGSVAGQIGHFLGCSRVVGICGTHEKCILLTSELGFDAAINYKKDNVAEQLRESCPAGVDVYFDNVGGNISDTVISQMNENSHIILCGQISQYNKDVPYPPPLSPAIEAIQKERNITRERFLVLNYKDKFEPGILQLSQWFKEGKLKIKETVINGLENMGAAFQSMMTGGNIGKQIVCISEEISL
T2 sequence (P37238 238-503 H351A limits assumed): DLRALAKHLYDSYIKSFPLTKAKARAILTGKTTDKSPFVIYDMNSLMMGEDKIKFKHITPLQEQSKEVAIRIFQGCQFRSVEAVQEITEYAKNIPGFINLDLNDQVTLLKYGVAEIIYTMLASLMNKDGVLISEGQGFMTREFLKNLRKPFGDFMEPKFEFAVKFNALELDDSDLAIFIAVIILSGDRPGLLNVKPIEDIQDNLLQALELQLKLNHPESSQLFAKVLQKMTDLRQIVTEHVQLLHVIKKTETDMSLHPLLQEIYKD
T1 sequence (P37238 238-503 C313A limits assumed): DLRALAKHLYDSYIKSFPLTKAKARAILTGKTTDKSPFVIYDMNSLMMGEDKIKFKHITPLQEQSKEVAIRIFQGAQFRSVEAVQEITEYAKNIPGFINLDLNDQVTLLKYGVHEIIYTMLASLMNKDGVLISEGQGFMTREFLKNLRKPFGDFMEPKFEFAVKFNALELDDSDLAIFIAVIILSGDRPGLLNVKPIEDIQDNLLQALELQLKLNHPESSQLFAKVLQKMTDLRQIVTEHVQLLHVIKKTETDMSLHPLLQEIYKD

In the case of CCCCCC(=O)/C=C/[C@H]1[C@H](O)CC(=O)[C@@H]1C/C=C\CCCC(=O)O [15-keto-PGE2, 15-keto-prostaglandin E2], the “effect of C313A mutation on binding (native MS)” value (mPPARγ LBD C313A mutant) is reported as “almost completely abolished 15-keto-PGE2 binding”, the “effect of H351A mutation on binding (native MS)” value (mPPARγ LBD H351A mutant) is reported as “only a minor impact on 15-keto-PGE2 binding” and the “interscapular, inguinal and rectal temperatures during cold test” value ([1]; 40 mg/kg/day ip, vs vehicle) is reported as “higher interscapular, inguinal, and rectal temperatures than vehicle controls during prolonged cold tests”. The “interscapular area temperature, Average” value ([1]; period 0 hr) was 38.275, the interscapular area temperature ([1]; period 0 hr) was 37.4 and 37.9 and 38.2 and 38.1 and 38.9 and the “interscapular area temperature, Average” value ([1]; period 1 hr) was 37.6917. For the same molecule, the interscapular area temperature ([1]; period 1 hr) was 37.1 and 37.5 and 37.2 and 37.9 and 37.4, the “interscapular area temperature, Average” value ([1]; period 2 hr) was 37.3583 and the interscapular area temperature ([1]; period 2 hr) was 37.4 and 37.2 and 36.9 and 37.8 and 37.6 and 36.4. The “interscapular area temperature, Average” value ([1]; period 3 hr) was 37.0083, the interscapular area temperature ([1]; period 3 hr) was 37.2 and 37.1 and 36.5 and 37.3 and 37.5 and 36.4 and the “interscapular area temperature, Average” value ([1]; period 4 hr) was 37.0083. For the same molecule, the interscapular area temperature ([1]; period 4 hr) was 37 and 36.8 and 37.6 and 37.3 and 36.2, the “interscapular area temperature, Average” value ([1]; period 5 hr) was 36.8917 and the interscapular area temperature ([1]; period 5 hr) was 36.5 and 37 and 36.7 and 36.9 and 37.1. For the same molecule, the “interscapular area temperature, Average” value ([1]; period 6 hr) was 36.7583, the interscapular area temperature ([1]; period 6 hr) was 36.2 and 36.3 and 36.9 and 37.9 and 37 and the “interscapular area temperature, Average” value ([1]; period 12 hr) was 35.6833. The interscapular area temperature ([1]; period 12 hr) was 36.2 and 37.5 and 34.9 and 35.7 and 35.4, the “interscapular area temperature, Average” value ([1]; period 18 hr) was 34.8333 and the interscapular area temperature ([1]; period 18 hr) was 36.3 and 35.5 and 33.6 and 33.9 and 35.7. For the same molecule, the inguinal area temperature ([1]; period 0 hr) was 36.2 and 36.9 and 37.2, the inguinal area temperature ([1]; period 1 hr) was 36.2 and 36.8 and the inguinal area temperature ([1]; period 2 hr) was 35.8 and 34.9. For the same molecule, the inguinal area temperature ([1]; period 3 hr) was 35.5 and 34.7, the inguinal area temperature ([1]; period 4 hr) was 35 and 34.8 and the inguinal area temperature ([1]; period 5 hr) was 34.9 and 34.7. The inguinal area temperature ([1]; period 6 hr) was 35.2 and 34.9, the inguinal area temperature ([1]; period 12 hr) was 32.9 and 34.1 and the inguinal area temperature ([1]; period 18 hr) was 33.2 and 33.7. For the same molecule, the “rectal temperatures, Average” value ([1]; period 0 hr) was 37.9667, the rectal temperatures ([1]; period 0 hr) was 37.6 and 38.1 and 38.5 and 37.9 and 36.3 and 38.3 and 38 and the “rectal temperatures, Average” value ([1]; period 1 hr) was 37.1667. For the same molecule, the rectal temperatures ([1]; period 1 hr) was 37 and 37.2 and 37.1 and 37.3 and 36.6 and 37.4 and 37.8 and 37.6, the “rectal temperatures, Average” value ([1]; period 2 hr) was 36.6917 and the rectal temperatures ([1]; period 2 hr) was 37.4 and 35.2 and 36.3 and 37 and 37.2 and 36.8 and 36.6 and 36.9 and 36.1 and 36.4. For the same molecule, the “rectal temperatures, Average” value ([1]; period 3 hr) was 36.45, the rectal temperatures ([1]; period 3 hr) was 36.7 and 36 and 36.6 and 36.9 and 35.8 and 37.5 and 36.3 and 36.2 and 36.1 and 36.4 and the “rectal temperatures, Average” value ([1]; period 4 hr) was 36.45. For the same molecule, the rectal temperatures ([1]; period 4 hr) was 37 and 36.2 and 36.8 and 37.2 and 36.7 and 36 and 35.7 and 36.4, the “rectal temperatures, Average” value ([1]; period 5 hr) was 36.4167 and the rectal temperatures ([1]; period 5 hr) was 37.6 and 36.4 and 36.3 and 36.1 and 36.5 and 36.7 and 35.8 and 36.2. For the same molecule, the “rectal temperatures, Average” value ([1]; period 6 hr) was 36.4167, the rectal temperatures ([1]; period 6 hr) was 36.8 and 36.6 and 36.4 and 35.6 and 37.3 and 36.1 and 36 and 35.5 and the “rectal temperatures, Average” value ([1]; period 12 hr) was 35.6917. The rectal temperatures ([1]; period 12 hr) was 35.9 and 37.5 and 34.2 and 35.3 and 37.6 and 34.5 and 35.2 and 36.3 and 37.9, the “rectal temperatures, Average” value ([1]; period 18 hr) was 34.025 and the rectal temperatures ([1]; period 18 hr) was 35.7 and 34.9 and 33 and 33.1 and 34.8 and 34.6 and 32 and 34.5 and 33.4 and 33.6 and 34.2. For the same molecule, the “temperature, Figure 2T middle panel, Average” value ([1]; time 0) was 36.2, the “temperature, Figure 2T middle panel, Average” value ([1]; time 1) was 36.0083 and the “temperature, Figure 2T middle panel, Average” value ([1]; time 2) was 35.325. The “temperature, Figure 2T middle panel, Average” value ([1]; time 3) was 35.0083, the “temperature, Figure 2T middle panel, Average” value ([1]; time 4) was 34.8083 and the “temperature, Figure 2T middle panel, Average” value ([1]; time 5) was 34.6417. For the same molecule, the “temperature, Figure 2T middle panel, Average” value ([1]; time 6) was 34.6417, the “temperature, Figure 2T middle panel, Average” value ([1]; time 12) was 34.375 and the “temperature, Figure 2T middle panel, Average” value ([1]; time 18) was 33.2583.

In the case of Cc1[nH]c2nc(C(C)N3CCN(c4ccccc4)CC3)nn2c(=O)c1Cc1ccc(F)cc1 (stereo not shown) [BPRPT0245], the Bone mineral density ([2]; 100 mg/kg/day oral, 26 weeks, vs vehicle) is reported as “no difference”, the “Figure 5T value (bone mineral density of femur), individual mice” value ([2]; individual values, BPRPT0245 group (Figure 5T)) is reported as 0.3548 and 0.3423 and 0.3795 and 0.3591 and 0.3711 and 0.3604 and 0.3411 and 0.3634 and 0.3483 and 0.3707 and the “extent of hepatic steatosis” value [3] is reported as “significantly decreased”. The hepatic triglycerides content [3] was “significantly decreased”, the “Figure 5B raw signal of the hPTGR2 inhibition dose-response (replicates)” value (human PTGR2 (hPTGR2); concentration 4.6 (unit not given)) was 5700 and 5540 and the “Figure 5B raw signal of the hPTGR2 inhibition dose-response (replicates)” value (human PTGR2 (hPTGR2); concentration 13.7 (unit not given)) was 12160 and 11080 and 9760. For the same molecule, the “Figure 5B raw signal of the hPTGR2 inhibition dose-response (replicates)” value (human PTGR2 (hPTGR2); concentration 41.2 (unit not given)) was 25040 and 27420 and 26900, the “Figure 5B raw signal of the hPTGR2 inhibition dose-response (replicates)” value (human PTGR2 (hPTGR2); concentration 123.5 (unit not given)) was 32220 and 32000 and 34120 and the “Figure 5B raw signal of the hPTGR2 inhibition dose-response (replicates)” value (human PTGR2 (hPTGR2); concentration 370.4 (unit not given)) was 37280 and 38620 and 37900. The “Figure 5B raw signal of the hPTGR2 inhibition dose-response (replicates)” value (human PTGR2 (hPTGR2); concentration 1111.1 (unit not given)) was 40200 and 38760 and 38680, the “Figure 5B raw signal of the hPTGR2 inhibition dose-response (replicates)” value (human PTGR2 (hPTGR2); concentration 3333.3 (unit not given)) was 40060 and 40940 and 40560 and the “Figure 5B raw signal of the hPTGR2 inhibition dose-response (replicates)” value (human PTGR2 (hPTGR2); concentration 10000 (unit not given)) was 42020 and 40520 and 40720. For the same molecule, the IC50 (human PTGR2 (hPTGR2); human PTGR2 enzymatic activity) was 8.92 nM.
